From US7671085B2, “Non-steroidal farnesoid X receptor modulators and methods for the use thereof” (The Salk Institute for Biological Studies, priority 2002, dated 2010)
“Also recorded” adds a separate entry of the source.

Target: T1, FXR (Homo sapiens, UniProt Q96RI1)
T1 construct: using a full length FXR on a natural response element; expressed in transfected cells
T1 sequence (Q96RI1 1-486): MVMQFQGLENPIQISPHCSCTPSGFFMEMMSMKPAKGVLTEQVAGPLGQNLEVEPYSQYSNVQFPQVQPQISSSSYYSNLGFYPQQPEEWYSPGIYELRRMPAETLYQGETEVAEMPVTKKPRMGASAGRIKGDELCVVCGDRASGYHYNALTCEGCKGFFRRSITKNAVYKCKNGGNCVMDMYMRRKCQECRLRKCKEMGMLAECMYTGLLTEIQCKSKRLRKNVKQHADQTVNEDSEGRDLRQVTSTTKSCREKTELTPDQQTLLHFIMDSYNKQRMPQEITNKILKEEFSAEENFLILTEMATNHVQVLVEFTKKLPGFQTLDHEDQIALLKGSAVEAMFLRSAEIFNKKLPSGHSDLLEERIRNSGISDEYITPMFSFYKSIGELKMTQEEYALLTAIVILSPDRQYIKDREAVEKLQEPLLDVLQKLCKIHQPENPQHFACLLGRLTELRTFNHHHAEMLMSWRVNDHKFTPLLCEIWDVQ
Test: cell-based FXR transcription assay, FXR responsive promoter linked to luciferase reporter
Conditions: cell-based FXR reporter assay; determined with Prism 3.0
Description: In addition to ensuring that only cell permeable compounds were selected for further optimization, this approach allows for the detection of FXR activation in a natural system (i.e., correct folding of the protein and in the presence of a complete compliment of co-activators and co-repressors).
The feasibility of creating high throughput screens (HTS) for ORs was explored using FXR as a candidate orphan receptor (OR) with a known activator, chenodeoxycholic acid (CDCA) as a ligand. The screen is based on the co-transfection of a full-length receptor with the reporter vector containing a natural hormone response element under a minimal eukaryotic promoter. […] Using this 384-well format, the high throughput screening (HTS) approach to FXR as a candidate OR was employed. […] A central question in the feasibility studies is whether this library is suitable for screening for nuclear receptor ligands. Samples of this library were first reformatted into a 384-well format and then subjected to the FXR cell-based assays described above and assessed for FXR-mediated transcriptional activity. Cells were exposed to approximately 10 μM of sample for 18 hrs prior to washing and luciferase analysis.
EC50 values were determined with Prism 3.0 software via the activity of the subject compound in the previously described cell based assay.

| SMILES | EC50 [nM] |
| --- | --- |
| COC(=O)/C=C/c1cccc(N(Cc2ccc3c(c2OC)OC(C)(C)C=C3)C(=O)C2CCCCC2)c1 [Compound 65] | 3.58 |
| CCOC(=O)C=Cc1cccc(N(Cc2ccc(C=CC(=O)OC(C)(C)C)cc2)C(=O)C2CCCCC2)c1 [Compound 133] | 256 |

Same assay, conditions: cell-based FXR reporter assay; footnote a not given

| RE^a | SMILES |
| --- | --- |
| 0.40 | COC(=O)/C=C/c1cccc(N(Cc2ccc3c(c2OC)OC(C)(C)C=C3)C(=O)C2CCCCC2)c1 [Compound 65] |
| 0.08 | COC(=O)C=Cc1cccc(N(Cc2ccc(C=CC(=O)O)cc2)C(=O)C2CCCCC2)c1 [Compound 104] |
| 2.12 | COC(=O)/C=C/c1cccc(N(Cc2ccc(/C=C/C(=O)OC(C)(C)C)cc2)C(=O)C2CCCCC2)c1 [Compound 105] |
| 0.09 | COC(=O)/C=C/c1cccc(N(Cc2ccccc2)C(=O)C2CCCCC2)c1 [Compound 110] |
| 0.28 | COC(=O)/C=C/c1cccc(N(Cc2ccc(Br)cc2)C(=O)C2CCCCC2)c1 [Compound 112] |
| 0.11 | COC(=O)C=Cc1cccc(N(Cc2cccc(Br)c2)C(=O)C2CCCCC2)c1 [Compound 113] |
| 0.11 | COC(=O)C=Cc1cccc(N(Cc2ccccc2Br)C(=O)C2CCCCC2)c1 [Compound 114] |
| 0.11 | COC(=O)/C=C/c1cccc(N(Cc2cccc(OC)c2)C(=O)C2CCCCC2)c1 [Compound 115] |
| 0.12 | COC(=O)/C=C/c1cccc(N(Cc2cccc(C(F)(F)F)c2)C(=O)C2CCCCC2)c1 [Compound 117] |
| 0.11 | COC(=O)/C=C/c1cccc(N(Cc2cc(OC)cc(OC)c2)C(=O)C2CCCCC2)c1 [Compound 118] |
| 1.67 | COC(=O)C=Cc1cccc(N(Cc2ccc(C=Cc3ccc(OC)cc3)cc2)C(=O)C2CCCCC2)c1 [Compound 122] |
| 0.29 | COC(=O)C=Cc1cccc(N(Cc2ccc(C=Cc3ccc(C(C)(C)C)cc3)cc2)C(=O)C2CCCCC2)c1 [Compound 123] |
| 0.71 | COC(=O)/C=C/c1cccc(N(Cc2ccc(-c3ccccc3)cc2)C(=O)C2CCCCC2)c1 [Compound 124] |
| 1.74 | COC(=O)/C=C/c1cccc(N(Cc2ccc(-c3ccc(SC)cc3)cc2)C(=O)C2CCCCC2)c1 [Compound 125] |
| 0.95 | COC(=O)/C=C/c1cccc(N(Cc2ccc(-c3cc(Cl)cc(Cl)c3)cc2)C(=O)C2CCCCC2)c1 [Compound 126] |
| 1.30 | COC(=O)/C=C/c1cccc(N(Cc2ccc(-c3cccc(C(C)=O)c3)cc2)C(=O)C2CCCCC2)c1 [Compound 127] |
| 1.78 | COC(=O)C=Cc1cccc(N(Cc2ccc(-c3ccc(C)s3)cc2)C(=O)C2CCCCC2)c1 [Compound 128] |
| 1.48 | COC(=O)C=Cc1cccc(N(Cc2ccc(-c3ccc(C(C)=O)s3)cc2)C(=O)C2CCCCC2)c1 [Compound 129] |
| 2.07 | CCOC(=O)C=Cc1cccc(N(Cc2ccc(C=CC(=O)OC(C)(C)C)cc2)C(=O)C2CCCCC2)c1 [Compound 133] |
| 0.50 | CC(C)(C)OC(=O)C=Cc1ccc(CN(C(=O)C2CCCCC2)c2cccc(C=CC(N)=O)c2)cc1 [Compound 135] |
| 1.68 | COCC=Cc1cccc(N(Cc2ccc(C=CC(=O)OC(C)(C)C)cc2)C(=O)C2CCCCC2)c1 [Compound 136] |
| 1.74 | CCOCC=Cc1cccc(N(Cc2ccc(C=CC(=O)OC(C)(C)C)cc2)C(=O)C2CCCCC2)c1 [Compound 137] |
| 0.45 | CC(C)(C)OC(=O)C=Cc1ccc(CN(C(=O)C2CCCCC2)c2cccc(C=CCOc3ccccc3)c2)cc1 [Compound 138] |
| RE^a = 1.38 | COC(=O)CCc1cccc(N(Cc2ccc(/C=C/C(=O)OC(C)(C)C)cc2)C(=O)C2CCCCC2)c1 [Compound 139] |
| 1.84 | COC(=O)C=Cc1cccc(N(Cc2ccc(C=CC(=O)OC(C)(C)C)cc2)C(=O)C2CCC2)c1 [Compound 141] |
| 2.16 | COC(=O)C=Cc1cccc(N(Cc2ccc(C=CC(=O)OC(C)(C)C)cc2)C(=O)C2CCCC2)c1 [Compound 142] |

More lines, now with the values behind:

| SMILES | RE^a |
| --- | --- |
| COC(=O)C=Cc1cccc(N(Cc2ccc3c(c2OC)OC(C)(C)C=C3)C(=O)c2ccccc2)c1 [Compound 68] | 0.83 |
| COC(=O)/C=C/c1cccc(N(Cc2ccc3c(c2OC)OC(C)(C)C2C3C2(Cl)Cl)C(=O)c2ccccc2)c1 (stereo not drawn) [Compound 102] | 0.64 |
| COC(=O)/C=C/c1cccc(NC(=O)C2CCCCC2)c1 [Compound 132] | 0.09 |
| CC(C)(C)OC(=O)C=Cc1ccc(CN(C(=O)C2CCCCC2)c2cccc(C=CC(=O)OC(C)(C)C)c2)cc1 [Compound 134] | 1.06 |
| COC(=O)C=Cc1cccc(N(Cc2ccc(C=CC(=O)OC(C)(C)C)cc2)C(=O)C2CC2)c1 [Compound 140] | 1.68 |
| COC(=O)/C=C/c1cccc(N(Cc2ccc(/C=C/C(=O)OC(C)(C)C)cc2)C(=O)c2ccccc2)c1 [Compound 143] | 1.96 |
| COC(=O)/C=C/c1cccc(N(Cc2ccc(/C=C/C(=O)OC(C)(C)C)cc2)C(=O)c2ccco2)c1 [Compound 144] | 1.93 |
| COC(=O)/C=C/c1cccc(N(Cc2ccc(/C=C/C(=O)OC(C)(C)C)cc2)C(=O)NC(C)C)c1 [Compound 145] | 1.96 |

Same assay, conditions: cell-based reporter assay, SAR discussion

| FXR activation, in words | SMILES |
| --- | --- |
| only micromolar potency | COC(=O)/C=C/c1cccc(N(Cc2cccc(/C=C/C(=O)OC(C)(C)C)c2)C(=O)C2CCCCC2)c1 [Compound 107] |
| only micromolar potency | COC(=O)/C=C/c1cccc(N(Cc2ccccc2/C=C/C(=O)OC(C)(C)C)C(=O)C2CCCCC2)c1 [Compound 109] |
| excellent activity | COC(=O)/C=C/c1cccc(N(Cc2ccc(-c3ccc(SC)cc3)cc2)C(=O)C2CCCCC2)c1 [Compound 125] |
| marked decline in potency | CCOC(=O)C=Cc1cccc(N(Cc2ccc(C=CC(=O)OC(C)(C)C)cc2)C(=O)C2CCCCC2)c1 [Compound 133] |
| marked decline in potency | CC(C)(C)OC(=O)C=Cc1ccc(CN(C(=O)C2CCCCC2)c2cccc(C=CC(N)=O)c2)cc1 [Compound 135] |
| only a two-fold decrease in potency | COC(=O)CCc1cccc(N(Cc2ccc(/C=C/C(=O)OC(C)(C)C)cc2)C(=O)C2CCCCC2)c1 [Compound 139] |
| excellent activity | COC(=O)C=Cc1cccc(N(Cc2ccc(C=CC(=O)OC(C)(C)C)cc2)C(=O)C2CCC2)c1 [Compound 141] |
| excellent activity | COC(=O)C=Cc1cccc(N(Cc2ccc(C=CC(=O)OC(C)(C)C)cc2)C(=O)C2CCCC2)c1 [Compound 142] |

More lines, now with the values behind:

| SMILES | FXR activation, in words |
| --- | --- |
| COC(=O)/C=C/c1cccc(N(Cc2ccc3c(c2OC)OC(C)(C)[C@@H](O)[C@H]3O)C(=O)c2ccccc2)c1 (relative stereo) [Compound 93] | did not improve the activity |
| COc1c(CN(C(=O)C2CC2)c2ccccc2)ccc2c1OC(C)(C)C=C2 [Compound 26] | among the most active at this stage |
| COc1c(CN(C(=O)C2CCCCC2)c2ccccc2)ccc2c1OC(C)(C)C=C2 [Compound 27] | among the most active at this stage |
| COC(=O)/C=C/c1cccc(N(Cc2ccc3c(c2OC)OC(C)(C)C=C3)C(=O)C2CC2)c1 [Compound 29] | substantially better activator of FXR than compound 26; also recorded: capable of activating FXR to a significant extent |
| CCOC(=O)/C=C/c1cccc(N(Cc2ccc3c(c2OC)OC(C)(C)C=C3)C(=O)C2CC2)c1 [Compound 30] | inactive |
| COC/C=C/c1cccc(N(Cc2ccc3c(c2OC)OC(C)(C)C=C3)C(=O)C2CC2)c1 [Compound 33] | capable of activating FXR to a significant extent |
| COc1c(CN(C(=O)C2CC2)c2cccc(/C=C/C#N)c2)ccc2c1OC(C)(C)C=C2 [Compound 34] | inactive |
| CNC(=O)/C=C/c1cccc(N(Cc2ccc3c(c2OC)OC(C)(C)C=C3)C(=O)C2CC2)c1 [Compound 38] | inactive |
| COC(=O)/C=C/c1ccc(N(Cc2ccc3c(c2OC)OC(C)(C)C=C3)C(=O)C2CC2)cc1 [Compound 53] | does not activate FXR |
| COC(=O)/C=C/c1cccc(N(Cc2ccccc2)Cc2ccc3c(c2OC)OC(C)(C)C=C3)c1 [Compound 78] | inactive |
| COC(=O)/C=C/c1cccc(N(C)Cc2ccc3c(c2OC)OC(C)(C)C=C3)c1 [Compound 79] | inactive |
| COC(=O)/C=C/c1cccc(N(Cc2ccc3c(c2OC)OC(C)(C)C=C3)S(=O)(=O)c2ccc(C)cc2)c1 [Compound 82] | inactive |
| COC(=O)/C=C/c1cccc(N(Cc2ccc3c(c2OC)OC(C)(C)C=C3)C(=S)C2CC2)c1 [Compound 83] | inactive |
| COC(=O)/C=C/c1cccc(N(Cc2ccc3c(c2OC)OC(C)(C)C=C3)C(=S)NCc2ccccc2)c1 [Compound 84] | inactive |
| COC(=O)/C=C/c1cccc(N(Cc2ccc3c(c2OC)OC(C)(C)C=C3C(=O)O)C(=O)c2ccccc2)c1 [Compound 86] | did not improve the activity |
| COC(=O)C=Cc1cccc(N(Cc2ccc3c(c2OC)OC(C)(C)C(O)C3O)C(=O)c2ccccc2)c1 (stereo not drawn) [Compound 94] | did not improve the activity |
| COC(=O)C=Cc1cccc(N(Cc2ccc3c(c2OC)OC(C)(C)C(O)C3Sc2ccccc2)C(=O)c2ccccc2)c1 (stereo not drawn) [Compound 98] | did not improve the activity |
| COC(=O)C=Cc1cccc(N(Cc2ccc3c(c2OC)OC(C)(C)C(O)C3N2CCCCC2)C(=O)c2ccccc2)c1 (stereo not drawn) [Compound 100] | did not improve the activity |
| CC(C)(C)OC(=O)C=Cc1ccc(CN(C(=O)C2CCCCC2)c2cccc(C=CC(=O)OC(C)(C)C)c2)cc1 [Compound 134] | marked decline in potency |
